Assay results from patent US20240132484A1, “BROAD SPECTRUM ANTIVIRAL COMPOUNDS TARGETING THE SKI COMPLEX” (priority 2020, published 2024).
Several values for one entry are separate records, joined by “and”; a condition that tells them apart may be missing. Equal entries are not always repeated. Where two headings read alike, the source gives them in different places.

System: SARS2
Format: cell-based, SARS-CoV-2
Conditions: for Percentage Infection Relative to Appropriate DMSO Control / Infection Data: Percentage Infection Relative to Appropriate DMSO Control / Percentage Infection Relative to Appropriate DMSO Control, Mean / Infection Data, Percentage Infection Relative to Appropriate DMSO Control: avg background subtraction; for Infection Data: Percentage Infection Relative to Appropriate DMSO Control: replicate wells; for Infection Data: Average, Mean: average of Exp 1-3 (SMW475, SMW477, SMW478), n 9; for Infection Data, Average, Mean percentage infection relative to DMSO control: Average of Exp 1 (SMW491) and Exp 2 (SMW492); for Percentage Infection Relative to Appropriate DMSO Control, Mean: Average of Exp 1 and Exp 2, n=4; for Infection Data, Percentage Infection Relative to Appropriate DMSO Control: single well

COc1ccc(CNCCc2ccccc2F)c(OCC(O)CN2CCN(C)CC2)c1 (racemic) [UMB18G]
Percentage Infection Relative to Appropriate DMSO Control (1 uM, Exp 1 (SMW454), single wells): 79.68% and 100.00% and 102.30%
Infection Data: Percentage Infection Relative to Appropriate DMSO Control (1 uM, Exp 1 (SMW475)): 59.52% and 81.22% and 48.39%
Infection Data: Percentage Infection Relative to Appropriate DMSO Control (1 uM, Exp 2 (SMW477)): 30.54% and 44.61% and 49.97%
Infection Data: Percentage Infection Relative to Appropriate DMSO Control (1 uM, Exp 3 (SMW478)): 92.92% and 83.96% and 93.97%
Infection Data: Average, Mean (1 uM): 65.01%
Percentage Infection Relative to Appropriate DMSO Control (5 uM, Exp 1 (SMW454), single wells): 82.33% and 99.01% and 94.32%
Infection Data: Percentage Infection Relative to Appropriate DMSO Control (5 uM, Exp 1 (SMW475)): 11.41% and 21.71% and 5.92%
Infection Data: Percentage Infection Relative to Appropriate DMSO Control (5 uM, Exp 2 (SMW477)): 9.13% and 26.77% and 20.94%
Infection Data: Percentage Infection Relative to Appropriate DMSO Control (5 uM, Exp 3 (SMW478)): 28.65% and 43.74% and 34.06%
Infection Data: Average, Mean (5 uM): 22.48%
Percentage Infection Relative to Appropriate DMSO Control (10 uM, Exp 1 (SMW454), single wells): 84.64% and 105.70% and 105.02%
Infection Data: Percentage Infection Relative to Appropriate DMSO Control (10 uM, Exp 1 (SMW475)): 7.16% and 14.38% and 4.59%
Infection Data: Percentage Infection Relative to Appropriate DMSO Control (10 uM, Exp 2 (SMW477)): 10.76% and 16.40% and 10.07%
Infection Data: Percentage Infection Relative to Appropriate DMSO Control (10 uM, Exp 3 (SMW478)): 46.05% and 27.62% and 30.93%
Infection Data: Average, Mean (10 uM): 18.66%
Percentage Infection Relative to Appropriate DMSO Control (25 uM, Exp 1 (SMW454), single wells): 54.89% and 58.50% and 60.94%
Infection Data: Percentage Infection Relative to Appropriate DMSO Control (25 uM, Exp 1 (SMW475)): 0.07% and −0.35% and −1.40%
Infection Data: Percentage Infection Relative to Appropriate DMSO Control (25 uM, Exp 2 (SMW477)): 1.11% and 0.67% and 1.76%
Infection Data: Percentage Infection Relative to Appropriate DMSO Control (25 uM, Exp 3 (SMW478)): 3.99% and 4.14% and 2.78%
Infection Data: Average, Mean (25 uM): 1.42%
Percentage Infection Relative to Appropriate DMSO Control (50 uM, Exp 1 (SMW454), single wells): 28.95% and 40.45% and 40.98%
Infection Data: Percentage Infection Relative to Appropriate DMSO Control (50 uM, Exp 1 (SMW475)): −0.48% and −1.48% and 0.34%
Infection Data: Percentage Infection Relative to Appropriate DMSO Control (50 uM, Exp 2 (SMW477)): 1.36% and 0.07% and 1.60%
Infection Data: Percentage Infection Relative to Appropriate DMSO Control (50 uM, Exp 3 (SMW478)): 0.69% and 2.33% and 1.45%
Infection Data: Average, Mean (50 uM): 0.65%
Infection Data, Average, Mean percentage infection relative to DMSO control (n=4, 1 uM): 65.84% and 39.37% and 49.93% and 57.24%
Infection Data, Average, Mean percentage infection relative to DMSO control (n=4, 5 uM): 54.32% and 40.70% and 42.82% and 28.04%
Infection Data, Average, Mean percentage infection relative to DMSO control (n=4, 10 uM): 8.53% and 5.08% and 5.96% and 7.33%
Infection Data, Average, Mean percentage infection relative to DMSO control (n=4, 25 uM): 11.20% and 7.36% and 4.36% and 11.41%
Infection Data, Average, Mean percentage infection relative to DMSO control (n=4, 50 uM): 8.04% and 0.83% and 7.39% and 10.06%
Infection Data, Average, Mean (Average of Exp 1-3, n 9, 1 uM): 79.70%
Infection Data, Average, Mean (Average of Exp 1-3, n 9, 5 uM): 44.64%
Infection Data, Average, Mean (Average of Exp 1-3, n 9, 10 uM): 52.11%
Infection Data, Average, Mean (Average of Exp 1-3, n 9, 25 uM): 19.49%
Infection Data, Average, Mean (Average of Exp 1-3, n 9, 50 uM): 11.46%
Percentage Infection Relative to Appropriate DMSO Control, Mean (1 uM): 59.34% and 41.11%
Percentage Infection Relative to Appropriate DMSO Control, Mean (5 uM): 26.29% and 13.69%
Percentage Infection Relative to Appropriate DMSO Control, Mean (10 uM): 6.07% and 4.47%
Percentage Infection Relative to Appropriate DMSO Control, Mean (25 uM): 3.40% and 3.46%
Percentage Infection Relative to Appropriate DMSO Control, Mean (50 uM): 2.64% and 2.63%
Infection Data, Percentage Infection Relative to Appropriate DMSO Control (Exp 1 (SMW491), 10 uM): 5.19% and 1.05% and 0.23% and 2.20% and 5.21% and 4.17% and 3.28% and 4.40%
Percentage Infection Relative to Appropriate DMSO Control (Exp 1 (SMW506), 10 uM, single wells): 6.99% and 10.55% and 9.19% and 3.42%
Percentage Infection Relative to Appropriate DMSO Control (Exp 1 (SMW506), 25 uM, single wells): 4.49% and 2.30% and 4.05% and 3.63%
Percentage Infection Relative to Appropriate DMSO Control (Exp 1 (SMW506), 50 uM, single wells): 4.22% and 4.54% and 5.07% and 2.41%
Percentage Infection Relative to Appropriate DMSO Control (Exp 2 (SMW466), 10 uM): 10.03% and 6.17% and 9.36%
Percentage Infection Relative to Appropriate DMSO Control (Exp 2 (SMW466), 25 uM): −0.69% and −1.02% and −1.54%
Percentage Infection Relative to Appropriate DMSO Control (Exp 2 (SMW466), 50 uM): −0.97% and −1.80% and 1.96%
Infection Data, Percentage Infection Relative to Appropriate DMSO Control (Exp 2 (SMW492), 1 uM): 87.68% and 68.32% and 72.99% and 69.05% and 75.23% and 75.22% and 50.23% and 54.62%
Infection Data, Percentage Infection Relative to Appropriate DMSO Control (Exp 2 (SMW492), 10 uM): 15.18% and 12.71% and 12.92% and 8.48% and 10.42% and 9.51% and 5.72% and 6.91%
Percentage Infection Relative to Appropriate DMSO Control (Exp 2 (SMW492), 1 uM, single wells): 34.50% and 31.39% and 22.69% and 24.33%
Percentage Infection Relative to Appropriate DMSO Control (Exp 2 (SMW492), 5 uM, single wells): 5.38% and 4.98% and 4.24% and 4.87%
Percentage Infection Relative to Appropriate DMSO Control (Exp 2 (SMW492), 10 uM, single wells): 3.43% and 3.30% and 3.52% and 1.74%
Percentage Infection Relative to Appropriate DMSO Control (Exp 2 (SMW492), 25 uM, single wells): 4.70% and 2.08% and 5.51% and 0.65%
Percentage Infection Relative to Appropriate DMSO Control (Exp 2 (SMW492), 50 uM, single wells): 1.27% and 0.52% and 1.57% and 1.49%
